From patent publication US10112943B2, “Substituted imidazoles as gamma secretase modulators” (Janssen Pharmaceutica NV, priority 2012, dated 2018)

Assays:
[1] = system: Aβ42; test: In vivo efficacy: brain levels of soluble Aβ42 in non-transgenic rodents (MSD electrochemiluminescence); parameters: species or system mouse; conditions: dose 30 mg/kg oral dosing, soluble fraction, untreated animals (Ctrl) set at 100, typical protocol 4 h after dose
From the text: (§1) To determine whether acute administration of an Aβ42 lowering agent would reduce Aβ42 levels in vivo, non-transgenic rodents, e.g. mice or rats were used. Animals treated with the Aβ42 lowering agent were examined and compared to those untreated or treated with vehicle and brain levels of soluble Aβ42, Aβ40, Aβ38, and Aβ37 were quantitated by Meso Scale Discovery's (MSD) electrochemiluminescence detection technology. Treatment periods varied from hours (h) to days and were adjusted based on the results of the Aβ42 lowering once a time course of onset of effect could be established.
(§2) A typical protocol for measuring Aβ42 lowering in vivo is shown but it is only one of many variations that could be used to optimize the levels of detectable Aβ. […] After 4 h, the animals were sacrificed and Aβ42 levels were analysed.
(§3) Blood was collected by decapitation and exsanguinations in EDTA-treated collection tubes. […] The left hemisphere was stored at −18° C. for quantitative analysis of test compound levels. […]
(§4) Mouse brains from non-transgenic animals were resuspended in 8 volumes of 0.4% DEA (diethylamine)/50 mM NaCl containing protease inhibitors (Roche-11873580001 or 04693159001) per gram of tissue, e.g. for 0.158 g brain, add 1.264 ml of 0.4% DEA. […] Nine parts of supernatant were neutralized with 1 part 0.5 M Tris-HCl pH 6.8 and used to quantify Aβ. […]

[2] = system: Aβ38; test: In vivo efficacy: brain levels of soluble Aβ38 in non-transgenic rodents (MSD electrochemiluminescence); parameters: species or system mouse; conditions: dose 30 mg/kg oral dosing, soluble fraction, untreated animals (Ctrl) set at 100, typical protocol 4 h after dose
From the text: as §1, with “Aβ38 increasing agents” for “Aβ42 lowering agent”, “increase Aβ38” for “reduce Aβ42”, “MSD” for “Meso Scale Discovery's (MSD)”, “Aβ38 increase” for “Aβ42 lowering”
A typical protocol for measuring Aβ38 increase in vivo is shown but it is only one of many variations that could be used to optimize the levels of detectable Aβ. […] After 4 h, the animals were sacrificed and Aβ38 levels were analysed.
as §3, §4

[3] = system: Aβ40; test: In vivo efficacy: brain levels of soluble Aβ40 in non-transgenic rodents (MSD electrochemiluminescence); parameters: species or system mouse; conditions: dose 30 mg/kg oral dosing, soluble fraction, untreated animals (Ctrl) set at 100, typical protocol 4 h after dose
From the text: as §1, §2, §3, §4

Cc1cn(-c2ccc3n(c2=O)C[C@@H]2CC[C@@H](Cc4cc(C(F)(F)F)cc(C(F)(F)F)c4)N2C3=O)cn1 (single isomer, unassigned) [Compound 4, 3-[[3,5-bis(trifluoromethyl)phenyl]methyl]-2,3,11,11a-tetrahydro-8-(4-methyl-1H-imidazol-1-yl)-1H-pyrido[1,2-a]pyrrolo[1,2-d]pyrazine-5,9-dione ((3S, 11aS) or (3R, 11aR))]
Aβ42 (% vs Ctrl) _Mean [1]: 47 % vs Ctrl
Aβ38 (% vs Ctrl) _Mean [2]: 136 % vs Ctrl
Aβ40 (% vs Ctrl) _Mean [3]: 69 % vs Ctrl
melting point: 254.8 °C
